Measurements reported in US10525055B2, “Opioid receptor antagonist prodrugs” (Nirsum Laboratories, Inc., priority 2017, dated 2020).

How the values were obtained:
[1] = Rat pharmacokinetic studies, intramuscular; assay type: in vivo, male Sprague Dawley Rats; settings: for Mean conc Nalmefene: rat plasma, IM, 86 mg/ml at 17 mg/kg
Protocol: The purpose of this study is to determine the pharmacokinetics of test compounds in plasma, following intramuscular administration to male Sprague Dawley Rats (n=3, unless otherwise specified).
The dose formulation of 400 mg base equivalents/ml in sesame oil+1% benzyl alcohol (unless otherwise specified) was administered by intramuscular injection. The dose volume was determined by the animals' body weight determined on the morning of dosing day.
(§1) Each collected blood sample was centrifuged for 4 minutes at 4° C. and 10000 rpm for plasma collection. Plasma was collected and transferred into a pre-labeled PP tube in dry ice at each time point and precipitated immediately using ACN at a ratio of 1:4 (plasma:ACN). Centrifuged again (10 minutes, 12000 rpm) and obtain the supernatant.
After terminal collection, all supernatant was stored at approximately −80° C. until bioanalysis.
(§2) LC-MS/MS methods for the quantitative determination of test compound in biological matrix were developed. […] The sample analysis was performed concurrently with a set of calibration standards and two sets of QC samples using the LC-MS/MS method.
(§3) Plasma concentration versus time data was analyzed by non-compartmental approaches using the Phoenix WinNonlin 6.3 software program. Cmax, Tmax, T1/2, AUC(0-t), AUC(0-inf), MRT(0-t), MRT(0-inf) and graphs of plasma concentration versus time profile were prepared.

[2] = Plasma stability assay, rat plasma; assay type: in vitro ADME; settings: 37° C., 10 μM
Protocol: Plasma stability determination of the test compounds in rat, dog, cynomolgus monkey and human plasma is performed using HPLC-MS. For rat, incubations are carried out in 96-well polypropylene plates in 5 aliquots of 70 μL each (one for each time point). […] Five time points are analyzed (0, 15, 120, 480 and 1440 min). For dog, monkey and human, test compounds (2 μM, final solvent concentration 1%) were also incubated at 37° C. and analyzed at five time points (0, 10, 30, 60 and 120 min). All incubations are performed in duplicates. The samples are analyzed by HPLC-MS. The percentage of parent compound remaining after incubation in plasma is determined.

[3] = Dog clinical observations after intramuscular dosing; assay type: in vivo, Beagle dogs; settings: dog D1502, compound 18 at 48 mg/kg; earlier weight, reported at 96 hr
Protocol: Weight monitoring was done every week.
(§4) The dose formulation (concentration−400 mg base equivalents/ml in sesame oil+1% benzyl alcohol, unless otherwise specified) was administered via deep intramuscularly (unless otherwise specified). The injection vehicle was also dosed via deep intramuscular route (unless otherwise specified) on contralateral site of each animal at study initiation. The animals were sedated with Propofol at 6 mg/kg via IV administration. Following sedation hair was carefully removed from around the injection site and the area gently cleaned. Care will be taken to avoid irritating skin during shaving and cleaning the injection site. Then dogs will be dosed with deep IM administration. At least 2.5 cm depth from the surface into the central aspect of the quadriceps or biceps femoris muscle, by angling the needle toward the femur. If the needle hits the femur, simply draws back slightly and then inject. The dose volume will be determined by the animals' body weight collected on the morning of dosing day. For repeated administration, the injection sites may be rotated to minimize tissue injury.

[4] = Solubility determination in oil (cottonseed oil, sesame oil)
Protocol: A known amount of test substance (˜40 mg) was weighed into the vial, 100 μL of oil was added and heated to 60° C. and then system was slurried to reach equilibrium. […] Extra oil was added into the vial once compound precipitated out and then the system was re-equilibrated at 1000 rpm at room temperature (25° C.). Final concentration was determined by HPLC method as described below in Table 6a and 6b.

[5] = Dog pharmacokinetic studies, deep intramuscular; assay type: in vivo, Beagle dogs; settings: dog IM, 48 mg/kg, Sesame oil + 1% Benzyl Alcohol
Protocol: The purpose of this study is to determine the pharmacokinetics of test compounds in plasma, following deep intramuscular administration to Beagle dogs (n=3, unless otherwise specified).
as §4
Blood samples were collected from a peripheral vessel from restrained, non-sedated animals per sampling time point.
Approximately 0.8 mL blood will be collected at each time point.
as §1
After terminal collection, all supernatant was stored at approximately −80° C. F until bioanalysis.
as §2, §3

[6] = rat IM, 17 mg/kg, Sesame oil + 1% Benzyl Alcohol
[7] = heating temp. 60 °C, obs. temp. 25 °C

| SMILES | % remaining at time point in minutes, 0 min [2] | % remaining at time point in minutes, 15 min [2] | % remaining at time point in minutes, 120 min [2] | % remaining at time point in minutes, 480 min [2] | % remaining at time point in minutes, 1440 min [2] | Approximate Solubility (mg/mL) in Excipient: Sesame oil [4, 7] | further results |
| --- | --- | --- | --- | --- | --- | --- | --- |
| C=C1CC[C@@]2(O)C3Cc4ccc(OC(=O)CCCCCCCCCCC)c5c4[C@@]2(CCN3CC2CC2)[C@H]1O5 [Compound 59, (4aS,7aS,12bS)-3-(cyclopropylmethyl)-4a-hydroxy-7-methylene-2,3,4,4a,5,6,7,7a-octahydro-1H-4,12-methanobenzofuro(3,2-c]isoquinolin-9-yl dodecanoate, reference compound] | 100% | 5.9% | 0.7% | 0.2% | 0% | – | AUC0-inf (ng · h/mL) nalmefene [1, 6]: 1026 ng·h/mL; AUC0-inf (ng · h/mL) prodrug [1, 6]: 10.4 ng·h/mL; Half-life t1/2 (hour) prodrug [1, 6]: 15.2 h; Terminal Half-life t1/2 (hour) nalmefene [1, 6]: 248 h; Mean conc Nalmefene ([1]; 1.00 h): 7.85 ng/mL; Mean conc Nalmefene ([1]; 2.00 h): 8.10 ng/mL; Mean conc Nalmefene ([1]; 4.00 h): 7.45 ng/mL; Mean conc Nalmefene ([1]; 8.00 h): 6.85 ng/mL; Mean conc Nalmefene ([1]; 24.0 h): 6.96 ng/mL; Mean conc Nalmefene ([1]; 48.0 h): 7.92 ng/mL; Mean conc Nalmefene ([1]; 72.0 h): 5.77 ng/mL; Mean conc Nalmefene ([1]; 144 h): 1.59 ng/mL; Mean conc Nalmefene ([1]; 312 h): 0.403 ng/mL; Mean conc Nalmefene ([1]; 480 h): 0.235 ng/mL; Mean conc Nalmefene ([1]; 648 h): 0.145 ng/mL |
| C=C1CC[C@@]2(O)[C@H]3Cc4ccc(O)c5c4[C@@]2(CCN3CC2CC2)[C@H]1O5.Cl [Nalmefene HCl-IR] | – | – | – | – | – | – | AUC0-inf (ng · h/mL) nalmefene ([1]; rat, 0.80 mg/kg, saline): 66.0 ng·h/mL; Terminal Half-life t1/2 (hour) nalmefene ([1]; rat, 0.80 mg/kg, saline): 0.87 h |
| C=C1CC[C@@]2(O)C3Cc4ccc(OC(=O)OCCCCCCCCCC)c5c4[C@@]2(CCN3CC2CC2)[C@H]1O5 [Compound 18, (4aS,7aS,12bS)-3-(cyclopropylmethyl)-4a-hydroxy-7-methylene-2,3,4,4a,5,6,7,7a-octahydro-1H-4,12-methanobenzofuro[3,2-e]isoquinolin-9-yl decyl carbonate] | 100% | 0.6% | 0.3% | 0.1% | 0% | >402 mg/mL | weight decreases from (earlier weight), D1502 [3]: 7.76 kg; Approximate Solubility (mg/mL) in Excipient: Cottonseed oil [4, 7]: >400 mg/mL |
| CCCCCCCCCCCCOC(=O)OCOc1ccc2c3c1O[C@H]1C(=O)CC[C@@]4(O)C(C2)N(CC2CC2)CC[C@]314 [Compound 29, (((4aS,7aR,12bS)-3-(cyclopropylmethyl)-4a-hydroxy-7-oxo-2,3,4,4a,5,6,7,7a-octahydro-1H-4,12-methanobenzofuro[3,2-e]isoquinolin-9-yl)oxy)methyl dodecyl carbonate] | – | – | – | – | – | >416.5 mg/mL | AUC0-inf (ng · h/mL) prodrug ([1]; rat IM, 165 mg/kg, Sesame oil + 1% Benzyl Alcohol): 74.8 ng·h/mL |
| C=C1CC[C@@]2(O)C3Cc4ccc(OCOC(=O)OCCCCCCCC/C=C/CCCCCCCC)c5c4[C@@]2(CCN3CC2CC2)[C@H]1O5 [Compound 1, (((4aS,7aS,12bS)-3-(cyclopropylmethyl)-4a-hydroxy-7-methylene-2,3,4,4a,5,6,7,7a-octahydro-1H-4,12-methanobenzofuro[3,2-e]isoquinolin-9-yl)oxy)methyl ((E)-octadec-9-en-1-yl) carbonate] | – | – | – | – | – | – | AUC0-inf (ng · h/mL) prodrug [5]: 1040 ng·h/mL; Half-life t1/2 (hour) prodrug [5]: 261 h |
| CCCCCCCCCCCCCC(=O)Oc1ccc2c3c1O[C@H]1C(=O)CC[C@@]4(O)C(C2)N(CC2CC2)CC[C@]314 [Compound 57, (4aS,7aR,12bS)-3-(cyclopropylmethyl)-4a-hydroxy-7-oxo-2,3,4,4a,5,6,7,7a-octahydro-1H-4,12-methanobenzofuro[3,2-e]isoquinolin-9-yl tetradecanoate] | 100% | 10.5% | 3.2% | 1.2% | 0% | >417.3 mg/mL | – |
| CCCCCCCCCCCCCCC(=O)Oc1ccc2c3c1O[C@H]1C(=O)CC[C@@]4(O)C(C2)N(CC2CC2)CC[C@]314 [Compound 58, (4aS,7aR,12bS)-3-(cyclopropylmethyl)-4a-hydroxy-7-oxo-2,3,4,4a,5,6,7,7a-octahydro-1H-4,12-methanobenzofuro[3,2-e]isoquinolin-9-yl pentadecanoate] | 100% | 37% | 20% | 2.9% | 1.8% | 99.4 to 198.8 mg/mL | – |
| CCCCCCCC/C=C/CCCCCCCCOC(=O)OCOc1ccc2c3c1O[C@H]1C(=O)CC[C@@]4(O)C(C2)N(CC2CC2)CC[C@]314 [Compound 7, (((4aS,7aR,12bS)-3-(cyclopropylmethyl)-4a-hydroxy-7-oxo-2,3,4,4a,5,6,7,7a-octahydro-1H-4,12-methanobenzofuro[3,2-e]isoquinolin-9-yl)oxy)methyl ((E)-octadec-9-en-1-yl) carbonate] | – | – | – | – | – | – | AUC0-inf (ng · h/mL) prodrug [5]: 610 ng·h/mL |
| C=C1CC[C@@]2(O)C3Cc4ccc(OC(=O)CCCCCCC/C=C\CCCCCCCC)c5c4[C@@]2(CCN3CC2CC2)[C@H]1O5 [Compound 36, (4aS,7aS,12bS)-3-(cyclopropylmethyl)-4a-hydroxy-7-methylene-2,3,4,4a,5,6,7,7a-octahydro-1H-4,12-methanobenzofuro[3,2-e]isoquinolin-9-yl oleate] | 100% | 74.4% | 66.3% | 39.8% | 19.1% | >408 mg/mL | Approximate Solubility (mg/mL) in Excipient: Cottonseed oil [4, 7]: >407 mg/mL; Approximate Solubility (mg/mL) in Excipient: Sesame oil ([4]; heating temp. 40 °C, obs. temp. 40 °C): >411.6 mg/mL |
